The source of these data is patent US20060264419A1 (priority 2003, published 2006).

The structures appear in SMILES notation.

In this experiment the target is 5-HT2A receptors (Rattus norvegicus, UniProt P14842). The experiment in a line: in-vitro affinity to 5-HT2A receptors, displacement of [3H]ketanserine (Example A1). The experiment is classed as binding. The conditions noted are these: target not given; description names affinity to 5-HT2A receptors; read-out: IC50. The source says:
The 5-HT2A receptors are exposed both to [^3H]ketanserine (a substance which is known for its affinity to the receptor) and also to the test compound. The decrease in the affinity of [^3H]ketanserine to the receptor is an indication of the affinity of the test substance to the 5-HT2A receptor.
(In general: In a radioligand displacement assay an active substance lowers the binding of a labelled ligand.)

Chain of 5-HT2A receptors (P14842 whole entry): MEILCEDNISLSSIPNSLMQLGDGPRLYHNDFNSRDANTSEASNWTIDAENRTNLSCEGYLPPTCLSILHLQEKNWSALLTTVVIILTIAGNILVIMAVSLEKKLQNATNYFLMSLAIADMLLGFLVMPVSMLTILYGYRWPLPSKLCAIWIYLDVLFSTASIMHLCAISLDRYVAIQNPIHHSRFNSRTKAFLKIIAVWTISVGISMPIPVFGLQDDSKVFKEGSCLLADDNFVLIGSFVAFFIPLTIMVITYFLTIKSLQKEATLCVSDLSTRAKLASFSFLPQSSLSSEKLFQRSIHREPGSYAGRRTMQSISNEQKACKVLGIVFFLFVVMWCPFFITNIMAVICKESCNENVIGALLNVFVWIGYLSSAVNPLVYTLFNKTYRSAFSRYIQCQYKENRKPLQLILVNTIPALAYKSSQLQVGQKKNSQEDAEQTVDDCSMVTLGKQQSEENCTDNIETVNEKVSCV

Broadly, the IC50 is the concentration at which inhibition is half-maximal. Take `Fc1ccc(-c2ccc(-n3ncc(CN4CCOCC4)c3-c3ccccc3F)cc2)cc1` [(61), 4-[1-(4′-Fluorobiphenyl-4-yl)-5-(2-fluorophenyl)-1H-pyrazol-4-ylmethyl]morpholine]: the half-inhibitory concentration (IC50) came out at 520 nM.

Consider `Fc1ccccc1-c1c(CN2CCOCC2)cnn1-c1ccc(-c2cccs2)cc1` [(62), 4-[5-(2-Fluorophenyl)-1-(4-thiophen-2-ylphenyl)-1H-pyrazol-4-ylmethyl]morpholine], for which the IC50 was found to be 620 nM.

On to `CN1CCN(Cc2cnn(-c3ccc(-c4ccccc4F)cc3)c2-c2ccccc2F)CC1` [(63), 1-[1-(2′-Fluorobiphenyl-4-yl)-5-(2-fluorophenyl)-1H-pyrazol-4-ylmethyl]-4-methylpiperazine], for which the IC50 came out at 93 nM.

For the molecule `CN1CCN(Cc2cnn(-c3ccc(-c4ccc(F)cc4)cc3)c2-c2ccccc2F)CC1` [(64), 1-[1-(4′-Fluorobiphenyl-4-yl)-5-(2-fluorophenyl)-1H-pyrazol-4-ylmethyl]-4-methylpiperazine], the IC50 was 7.8 nM.

For `CN1CCN(Cc2cnn(-c3ccc(-c4cc(F)ccc4F)cc3)c2-c2ccccc2F)CC1` [(65), 1-[1-(2′,5′-Difluorobiphenyl-4-yl)-5-(2-fluorophenyl)-1H-pyrazol-4-ylmethyl]-4-methylpiperazine], the IC50 was determined as 55 nM.

On to `CN1CCN(Cc2cnn(-c3ccc(-c4ccsc4)cc3)c2-c2ccccc2F)CC1` [(66), 1-[5-(2-Fluorophenyl)-1-(4-thiophen-3-ylphenyl)-1H-pyrazol-4-ylmethyl]-4-methylpiperazine], for which the half-maximal inhibitory concentration (IC50) was 14 nM.

In the case of `CN1CCN(Cc2cnn(-c3ccc(-c4ccccc4)cc3)c2C(F)(F)F)CC1` [(67)], the IC50 amounted to 260 nM.

On to `CN1CCN(Cc2cnn(-c3ccc(-c4cc(F)ccc4F)cc3)c2-c2ccccc2)CC1` [(68), 1-[1-(2′,5′-Difluorobiphenyl-4-yl)-5-phenyl-1H-pyrazol-4-ylmethyl]-4-methylpiperazine], for which the IC50 came to 110 nM.

As to `CN1CCN(Cc2cnn(-c3ccc(-c4cc(F)ccc4F)cc3)c2-c2ccco2)CC1` [(69), 1-[1-(2′,5′-Difluorobiphenyl-4-yl)-5-furan-2-yl-1H-pyrazol-4-ylmethyl]-4-methylpiperazine], the IC50 was determined as 36 nM.

For the molecule `CN1CCN(Cc2cnn(-c3ccc(-c4ccsc4)cc3)c2-c2ccco2)CC1` [(70), 1-[5-Furan-2-yl-1-(4-thiophen-3-ylphenyl)-1H-pyrazol-4-ylmethyl]-4-methylpiperazine], the IC50 turned out to be 4.5 nM.

Regarding `COc1ccccc1-c1c(CN2CCN(C)CC2)cnn1-c1ccc(-c2cc(F)ccc2F)cc1` [(71), 1-[1-(2′,5′-Difluorobiphenyl-4-yl)-5-(2-methoxyphenyl)-1H-pyrazol-4-ylmethyl]-4-methylpiperazine], the IC50 is 77 nM.

For the molecule `CCOC(=O)N1CCC(NCc2cnn(-c3ccc(-c4ccccc4)cc3)c2-c2ccccc2F)CC1` [(72), Ethyl 4-{[1-biphenyl-4-yl-5-(2-fluorophenyl)-1H-pyrazol-4-ylmethyl]amino}piperidine-1-carboxylate], the IC50 was 580 nM.

Turning to `CCOC(=O)CN1CCN(Cc2cnn(-c3ccc(-c4ccccc4)cc3)c2-c2ccccc2F)CC1` [(73), Ethyl {4-[1-biphenyl-4-yl-5-(2-fluorophenyl)-1H-pyrazol-4-ylmethyl]piperazin-1-yl}acetate], the IC50 was determined as 690 nM.

Take `Fc1ccccc1-c1c(CNC2CCNCC2)cnn1-c1ccc(-c2ccccc2)cc1` [(74), [1-Biphenyl-4-yl-5-(2-fluorophenyl)-1H-pyrazol-4-ylmethyl]-piperidin-4-ylamine]: the IC50 was found to be 470 nM.

On to `NCCNCc1cnn(-c2ccc(-c3ccccc3)cc2)c1-c1ccccc1F` [(76), N^1-[1-Biphenyl-4-yl-5-(2-fluorophenyl)-1H-pyrazol-4-ylmethyl]-ethane-1,2-diamine], for which the IC50 worked out at 6.5 nM.

Regarding `OCCNCc1cnn(-c2ccc(-c3ccccc3)cc2)c1-c1ccccc1F` [(77), 2-{[1-Biphenyl-4-yl-5-(2-fluorophenyl)-1H-pyrazol-4-ylmethyl]-amino}ethanol], the IC50 came to 5.2 nM.

`COCCNCc1cnn(-c2ccc(-c3ccccc3)cc2)c1-c1ccccc1F` [(78), [1-Biphenyl-4-yl-5-(2-fluorophenyl)-1H-pyrazol-4-ylmethyl]-(2-methoxyethyl)amine]: the IC50 was found to be 16 nM.

In the case of `OCCN1CCN(Cc2cnn(-c3ccc(-c4ccccc4)cc3)c2-c2ccccc2F)CC1` [(79), 2-{4-[1-Biphenyl-4-yl-5-(2-fluorophenyl)-1H-pyrazol-4-ylmethyl]piperazin-1-yl}ethanol], the IC50 turned out to be 280 nM.

Regarding `CCC1(O)CCN(Cc2cnn(-c3ccc(-c4ccccc4)cc3)c2-c2ccccc2F)CC1` [(80), 1-[1-Biphenyl-4-yl-5-(2-fluorophenyl)-1H-pyrazol-4-ylmethyl]-4-ethylpiperidin-4-ol], the half-inhibitory concentration (IC50) stood at 280 nM.

For `OC1CCN(Cc2cnn(-c3ccc(-c4ccccc4)cc3)c2-c2ccccc2F)CC1` [(81), 1-[1-Biphenyl-4-yl-5-(2-fluorophenyl)-1H-pyrazol-4-ylmethyl]-piperidin-4-ol], the IC50 was 430 nM.

With `Fc1ccccc1-c1c(CN2CC3CC2CO3)cnn1-c1ccc(-c2ccccc2)cc1` (stereo not drawn) [(82), 5-[1-Biphenyl-4-yl-5-(2-fluorophenyl)-1H-pyrazol-4-ylmethyl]-2-oxa-5-azabicyclo[2.2.1]heptane], the IC50 was found to be 160 nM.

Turning to `OC1CC2CCC(C1)N2Cc1cnn(-c2ccc(-c3ccccc3)cc2)c1-c1ccccc1F` (stereo not drawn) [(83), 8-[1-Biphenyl-4-yl-5-(2-fluorophenyl)-1H-pyrazol-4-ylmethyl]-8-azabicyclo[3.2.1]octan-3-ol], the IC50 amounted to 1100 nM.

Turning to `CC(C)(C)OC(=O)N1CCN(Cc2cnn(-c3ccc(C(F)(F)F)cc3)c2-c2ccccc2F)CC1` [(84), tert-Butyl 4-[5-(2-fluorophenyl)-1-(4-trifluoromethyl-phenyl)-1H-pyrazol-4-ylmethyl]piperazine-1-carboxylate], the IC50 was determined as 8 nM.

For `NC(=O)C1CCN(Cc2cnn(-c3ccc(-c4ccccc4)cc3)c2-c2ccccc2F)CC1` [(85), 1-[1-Biphenyl-4-yl-5-(2-fluorophenyl)-1H-pyrazol-4-ylmethyl]-piperidine-4-carboxamide], the IC50 stood at 870 nM.

`Fc1ccccc1-c1c(CN2CCNCC2)cnn1-c1ccc(C(F)(F)F)cc1` [(86), 1-[5-(2-Fluorophenyl)-1-(4-trifluoromethylphenyl)-1H-pyrazol-4-ylmethyl]piperazine]: the IC50 is 43 nM.

With `CN1CCN(Cc2cnn(-c3ccc(C(F)(F)F)cc3)c2-c2ccccc2F)CC1` [(87), 1-[5-(2-Fluorophenyl)-1-(4-trifluoromethylphenyl)-1H-pyrazol-4-ylmethyl]-4-methylpiperazine], the IC50 is 160 nM.

As for `CCN1CCCC1CNCc1cnn(-c2ccc(-c3ccccc3)cc2)c1-c1ccccc1F` (stereo not drawn) [(88), [1-Biphenyl-4-yl-5-(2-fluorophenyl)-1H-pyrazol-4-ylmethyl]-(1-ethylpyrrolidin-2-ylmethyl)amine], the IC50 is 20 nM.

Regarding `Fc1ccccc1-c1c(CNCc2cccnc2)cnn1-c1ccc(-c2ccccc2)cc1` [(89), [1-Biphenyl-4-yl-5-(2-fluorophenyl)-1H-pyrazol-4-ylmethyl]-pyridin-3-ylmethylamine], the IC50 stood at 180 nM.

On to `CCN1CCN(Cc2cnn(-c3ccc(-c4ccccc4)cc3)c2-c2ccccc2F)CC1` [(90), 1-[1-Biphenyl-4-yl-5-(2-fluorophenyl)-1H-pyrazol-4-ylmethyl]-4-ethylpiperazine], for which the IC50 was 28 nM.

`CN(CCO)Cc1cnn(-c2ccc(-c3ccccc3)cc2)c1-c1ccccc1F` [(92), 2-{[1-Biphenyl-4-yl-5-(2-fluorophenyl)-1H-pyrazol-4-ylmethyl]-methylamino}ethanol]: the IC50 was found to be 16 nM.

For the molecule `CN1CCCN(Cc2cnn(-c3ccc(-c4ccccc4)cc3)c2-c2ccccc2F)CC1` [(93), 1-[1-Biphenyl-4-yl-5-(2-fluorophenyl)-1H-pyrazol-4-ylmethyl]-4-methyl-[1,4]diazepam], the IC50 is 6.4 nM.

Take `O=C1NCN(c2ccccc2)C12CCN(Cc1cnn(-c3ccc(-c4ccccc4)cc3)c1-c1ccccc1F)CC2` [(94), 8-[1-Biphenyl-4-yl-5-(2-fluorophenyl)-1H-pyrazol-4-ylmethyl]-1-phenyl-1,3,8-triazaspiro[4.5]decan-4-one]: the IC50 worked out at 400 nM.

For `CC1CN(Cc2cnn(-c3ccc(-c4ccccc4)cc3)c2-c2ccccc2F)CC(C)N1` (stereo not drawn) [(95), 1-[1-Biphenyl-4-yl-5-(2-fluorophenyl)-1H-pyrazol-4-ylmethyl]-3,5-dimethylpiperazine], the IC50 is 100 nM.

Take `CN1CCN(Cc2cnn(-c3ccc(-c4ccccc4F)cc3)c2-c2ccccc2)CC1` [(96), 1-[1-(2′-Fluorobiphenyl-4-yl)-5-phenyl-1H-pyrazol-4-ylmethyl]-4-methylpiperazine]: the IC50 was determined as 820 nM.

For `CN1CCN(Cc2cnn(-c3ccc(-c4ccc(F)cc4)cc3)c2-c2ccccc2)CC1` [(97), 1-[1-(4′-Fluorobiphenyl-4-yl)-5-phenyl-1H-pyrazol-4-ylmethyl]-4-methylpiperazine], the IC50 is 13 nM.

For `CN1CCN(Cc2cnn(-c3ccc(-c4ccsc4)cc3)c2-c2ccccc2)CC1` [(98), 1-Methyl-4-[5-phenyl-1-(4-thiophen-3-ylphenyl)-1H-pyrazol-4-ylmethyl]piperazine], the IC50 is 31 nM.

Consider `CN1CCN(Cc2cnn(-c3ccc(-c4ccccc4F)cc3)c2-c2ccc(F)cc2)CC1` [(99), 1-[1-(2′-Fluorobiphenyl-4-yl)-5-(4-fluorophenyl)-1H-pyrazol-4-ylmethyl]-4-methylpiperazine], for which the IC50 turned out to be 210 nM.

Regarding `CN1CCN(Cc2cnn(-c3ccc(-c4ccc(F)cc4)cc3)c2-c2ccc(F)cc2)CC1` [(100), 1-[1-(4′-Fluorobiphenyl-4-yl)-5-(4-fluorophenyl)-1H-pyrazol-4-ylmethyl]-4-methylpiperazine], the IC50 stood at 25 nM.

For `CN1CCN(Cc2cnn(-c3ccc(-c4cc(F)ccc4F)cc3)c2-c2ccc(F)cc2)CC1` [(101), 1-[1-(2′,5′-Difluorobiphenyl-4-yl)-5-(4-fluorophenyl)-1H-pyrazol-4-ylmethyl]-4-methylpiperazine], the IC50 was 240 nM.
